According to PubChem BioAssay (NCI):
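48-hour exposure; five concentrations; linearly interpolated endpoints. GI50 = concentration required for 50% inhibition of growth. TGI denotes the concentration required for complete inhibition of growth.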

What was measured:
Test in all cases: DTP human tumour cell line panel, 48 h
SNB-19 CNS = tested on: SNB-19 CNS
SK-MEL-28 melanoma = tested on: SK-MEL-28 melanoma
IGROV1 ovarian = tested on: IGROV1 ovarian
EKVX NSCLC = tested on: EKVX NSCLC
MDA-MB-435 = tested on: MDA-MB-435
OVCAR-8 ovarian = tested on: OVCAR-8 ovarian
786-0 renal = tested on: 786-0 renal
DU-145 prostate = tested on: DU-145 prostate
A498 renal = tested on: A498 renal
K-562 leukemia = tested on: K-562 leukemia
SW-620 colon = tested on: SW-620 colon
CCRF-CEM leukemia = tested on: CCRF-CEM leukemia
NCI-H23 lung = tested on: NCI-H23 lung
A549 NSCLC = tested on: A549 NSCLC
OVCAR-3 ovarian = tested on: OVCAR-3 ovarian
OVCAR-4 ovarian = tested on: OVCAR-4 ovarian
TK-10 renal = tested on: TK-10 renal
T-47D breast = tested on: T-47D breast
SK-OV-3 ovarian = tested on: SK-OV-3 ovarian
HCT-15 colon = tested on: HCT-15 colon
HT29 colon = tested on: HT29 colon
HOP-62 NSCLC = tested on: HOP-62 NSCLC
U251 CNS = tested on: U251 CNS
HS 578T breast = tested on: HS 578T breast
NCI-H460 lung = tested on: NCI-H460 lung
MDA-MB-231 breast = tested on: MDA-MB-231 breast
SF-295 CNS = tested on: SF-295 CNS
HOP-92 NSCLC = tested on: HOP-92 NSCLC
ACHN renal = tested on: ACHN renal
MCF7 breast = tested on: MCF7 breast
MALME-3M melanoma = tested on: MALME-3M melanoma
SF-539 CNS = tested on: SF-539 CNS
NCI/ADR-RES ovarian = tested on: NCI/ADR-RES ovarian
M14 melanoma = tested on: M14 melanoma
HL-60(TB) leukemia = tested on: HL-60(TB) leukemia
PC-3 prostate = tested on: PC-3 prostate
UACC-257 melanoma = tested on: UACC-257 melanoma
RPMI-8226 leukemia = tested on: RPMI-8226 leukemia
HCT-116 colon = tested on: HCT-116 colon
UO-31 renal = tested on: UO-31 renal
NCI-H226 lung = tested on: NCI-H226 lung
BT-549 breast = tested on: BT-549 breast
SK-MEL-2 melanoma = tested on: SK-MEL-2 melanoma
SK-MEL-5 melanoma = tested on: SK-MEL-5 melanoma
SN12C renal = tested on: SN12C renal
SR leukemia = tested on: SR leukemia
RXF 393 renal = tested on: RXF 393 renal
SNB-75 CNS = tested on: SNB-75 CNS
UACC-62 melanoma = tested on: UACC-62 melanoma
MOLT-4 leukemia = tested on: MOLT-4 leukemia
SF-268 CNS = tested on: SF-268 CNS
HCC-2998 colon = tested on: HCC-2998 colon
OVCAR-5 ovarian = tested on: OVCAR-5 ovarian
LOX IMVI melanoma = tested on: LOX IMVI melanoma
CAKI-1 renal = tested on: CAKI-1 renal
COLO 205 colon = tested on: COLO 205 colon
NCI-H522 lung = tested on: NCI-H522 lung
KM12 colon = tested on: KM12 colon

With CC1=CC(=O)N(c2cccc3c(N4C(=O)C=C(C)C4=O)cccc23)C1=O the GI50 (SNB-19 CNS) was 53.3 µM, the TGI (SNB-19 CNS) was over 100 µM and the GI50 (SK-MEL-28 melanoma) was 7.81 µM. The TGI (SK-MEL-28 melanoma) was 43.5 µM, the GI50 (IGROV1 ovarian) was 3.55 µM and the TGI (IGROV1 ovarian) was 16.2 µM. The GI50 (EKVX NSCLC) was 15.6 µM, the TGI (EKVX NSCLC) was 33.5 µM and the GI50 (MDA-MB-435) was 3.13 µM. For the same compound, the TGI (MDA-MB-435) was over 37.1 µM, the GI50 (OVCAR-8 ovarian) was 3.36 µM and the TGI (OVCAR-8 ovarian) was 16.5 µM. The GI50 (786-0 renal) was 7.5 µM, the TGI (786-0 renal) was 23.5 µM and the GI50 (DU-145 prostate) was 4.08 µM. It also gave a TGI (DU-145 prostate) of 14.4 µM, a GI50 (A498 renal) of 26.6 µM and a TGI (A498 renal) of 56.5 µM. The GI50 (K-562 leukemia) was 1.9 µM, the TGI (K-562 leukemia) was 9.45 µM and the GI50 (SW-620 colon) was 0.99 µM. It also gave a TGI (SW-620 colon) of 2.93 µM, a GI50 (CCRF-CEM leukemia) of 1.52 µM and a TGI (CCRF-CEM leukemia) of 11.1 µM. It also gave a GI50 (NCI-H23 lung) of 15.3 µM, a TGI (NCI-H23 lung) of 39.7 µM and a GI50 (A549 NSCLC) of 32.5 µM. The TGI (A549 NSCLC) was over 100 µM, the GI50 (OVCAR-3 ovarian) was 1.54 µM and the TGI (OVCAR-3 ovarian) was 5.9 µM. It also gave a GI50 (OVCAR-4 ovarian) of 5.18 µM, a TGI (OVCAR-4 ovarian) of 16.9 µM and a GI50 (TK-10 renal) of 3.1 µM. It also gave a TGI (TK-10 renal) of 7.83 µM, a GI50 (T-47D breast) of 2.07 µM and a TGI (T-47D breast) of 9.12 µM. For the same compound, the GI50 (SK-OV-3 ovarian) was 53 µM, the TGI (SK-OV-3 ovarian) was over 100 µM and the GI50 (HCT-15 colon) was 2.67 µM. For the same compound, the TGI (HCT-15 colon) was 10.2 µM, the GI50 (HT29 colon) was 2.73 µM and the TGI (HT29 colon) was 8.1 µM. It also gave a GI50 (HOP-62 NSCLC) of 28.3 µM, a TGI (HOP-62 NSCLC) of over 69.3 µM and a GI50 (U251 CNS) of 5.88 µM. It also gave a TGI (U251 CNS) of 19.5 µM, a GI50 (HS 578T breast) of 18.6 µM and a TGI (HS 578T breast) of over 100 µM. The GI50 (NCI-H460 lung) was 19.5 µM, the TGI (NCI-H460 lung) was 47.7 µM and the GI50 (MDA-MB-231 breast) was 8.44 µM. It also gave a TGI (MDA-MB-231 breast) of 22.5 µM, a GI50 (SF-295 CNS) of over 46.7 µM and a TGI (SF-295 CNS) of over 71.5 µM. For the same compound, the GI50 (HOP-92 NSCLC) was 2.5 µM, the TGI (HOP-92 NSCLC) was 21 µM and the GI50 (ACHN renal) was 2.78 µM. It also gave a TGI (ACHN renal) of 11 µM, a GI50 (MCF7 breast) of 3.95 µM and a TGI (MCF7 breast) of 23.5 µM. The GI50 (MALME-3M melanoma) was 3.13 µM, the TGI (MALME-3M melanoma) was 9.33 µM and the GI50 (SF-539 CNS) was 3.37 µM. The TGI (SF-539 CNS) was 26.2 µM, the GI50 (NCI/ADR-RES ovarian) was 10.4 µM and the TGI (NCI/ADR-RES ovarian) was over 89 µM. It also gave a GI50 (M14 melanoma) of 3.9 µM, a TGI (M14 melanoma) of 19.5 µM and a GI50 (HL-60(TB) leukemia) of 2.38 µM. It also gave a TGI (HL-60(TB) leukemia) of 8.8 µM, a GI50 (PC-3 prostate) of 7.97 µM and a TGI (PC-3 prostate) of 22.7 µM. The GI50 (UACC-257 melanoma) was 3.97 µM, the TGI (UACC-257 melanoma) was 25 µM and the GI50 (RPMI-8226 leukemia) was 3.71 µM. The TGI (RPMI-8226 leukemia) was 19 µM, the GI50 (HCT-116 colon) was 1.79 µM and the TGI (HCT-116 colon) was 4.16 µM. For the same compound, the GI50 (UO-31 renal) was 1.78 µM, the TGI (UO-31 renal) was 4.44 µM and the GI50 (NCI-H226 lung) was 23.1 µM. For the same compound, the TGI (NCI-H226 lung) was over 63.8 µM, the GI50 (BT-549 breast) was 6.44 µM and the TGI (BT-549 breast) was 19.5 µM. It also gave a GI50 (SK-MEL-2 melanoma) of 31.5 µM, a TGI (SK-MEL-2 melanoma) of over 100 µM and a GI50 (SK-MEL-5 melanoma) of 15.5 µM. It also gave a TGI (SK-MEL-5 melanoma) of 36.3 µM, a GI50 (SN12C renal) of 8.62 µM and a TGI (SN12C renal) of 26.5 µM. For the same compound, the GI50 (SR leukemia) was 1.56 µM, the TGI (SR leukemia) was 5.22 µM and the GI50 (RXF 393 renal) was 1.96 µM. It also gave a TGI (RXF 393 renal) of 4.4 µM, a GI50 (SNB-75 CNS) of 28.1 µM and a TGI (SNB-75 CNS) of over 100 µM. The GI50 (UACC-62 melanoma) was 7.68 µM, the TGI (UACC-62 melanoma) was 20.5 µM and the GI50 (MOLT-4 leukemia) was 3.29 µM. For the same compound, the TGI (MOLT-4 leukemia) was 11.1 µM, the GI50 (SF-268 CNS) was 6.37 µM and the TGI (SF-268 CNS) was 23.8 µM. The GI50 (HCC-2998 colon) was 18.4 µM, the TGI (HCC-2998 colon) was 34.3 µM and the GI50 (OVCAR-5 ovarian) was 8.35 µM. For the same compound, the TGI (OVCAR-5 ovarian) was 26.3 µM, the GI50 (LOX IMVI melanoma) was 1.8 µM and the TGI (LOX IMVI melanoma) was 5.56 µM. The GI50 (CAKI-1 renal) was 3.61 µM, the TGI (CAKI-1 renal) was 13.8 µM and the GI50 (COLO 205 colon) was 0.988 µM. The TGI (COLO 205 colon) was 2.65 µM, the GI50 (NCI-H522 lung) was 0.693 µM and the TGI (NCI-H522 lung) was 1.79 µM. The GI50 (KM12 colon) was 11.3 µM and the TGI (KM12 colon) was 34 µM.
